The test system of data set [1] is 4T1 cells [4T1细胞]. As to the kind of experiment: In vitro cytotoxicity test (MTT, 72 h). The settings on record: Mus musculus, 4T1, 72 h.
Data set [2] relates to 4T1 cells [4T1细胞].

Molecules are shown by their SMILES. Converted amounts (≈) assume the structure as drawn.

For the compound `CC(=O)O[C@@]12CO[C@@H]1C[C@H](O)[C@@]1(C)C(=O)[C@H](O)C3=C(C)[C@@H](OC(=O)[C@H](O)[C@@H](NC(=O)OC(C)(C)C)c4ccccc4)C[C@@](O)([C@@H](OC(=O)c4ccccc4)[C@H]21)C3(C)C` [多西他赛], half-maximal inhibition in the data set with 4T1 cells [4T1细胞] [1] (IC50) required 0.0265 ± 0.00136 µg/mL (≈ 0.0328 µM).

Regarding `CCCCCC=CCC=CCCCCCCCC(=O)OC(C(=O)OC1CC2(O)C(OC(=O)c3ccccc3)C3C4(OC(C)=O)COC4CC(O)C3(C)C(=O)C(O)C(=C1C)C2(C)C)C(NC(=O)OC(C)(C)C)c1ccccc1` (stereo not drawn) [多西他赛亚油酸酯], in the data set with 4T1 cells [4T1细胞] [2], the “cytotoxicity (in words)” value is listed as “细胞毒性强于多西他赛”. Also, the IC50 in the data set with 4T1 cells [4T1细胞] [1] worked out at 0.0136 ± 0.00204 µg/mL (≈ 0.0127 µM).

A word on the IC50: it is the concentration that inhibits the measured activity by half. Low values mean greater potency, high ones weaker potency.
